2 substances from US8440789B2, “Pharmaceutical and/or cosmetic composition containing an active antioxydant principle and cell energy activator” (Societe d'Extraction des Principes Actifs (Vincience), priority 2007, dated 2013) can be followed below.

Ends that are not written are not given here.

What all share (assay type): cell-based
In assay [1] the test system is dermal fibroblasts. The assay is described as follows: Synthesis of intracellular ATP (ATP Bioluminescence Assay Kit HS II). To be noted: 1% solution of a 50 ppm solution of peptide, compared to the untreated cells. As to the method: The goal of this study is to determine the influence of the peptide SEQ ID no 2 on the synthesis of ATP.
This study was conducted using an “ATP Bioluminescence Assay Kit HS II” Kit (Roche Applied Science):
The dermal fibroblasts are treated with a 1% solution, a solution a 50 ppm, containing the peptide SEQ ID no 2, representative of the family of peptides according to the invention, for a period lasting from 1 to 3 hours. At the end of the incubation period, the wells are emptied of their medium and rinsed with 2 ml of cold PBS before adding 250 μl of a lysis buffer supplied by the kit. The cells of each well are then scrapped, then collected in 14 ml tubes. Each well is rinsed with 2×500 μl of cold PBS and everything is against collected the respective tubes. Beginning with these samples, a 1/12000th dilution is done in cold PBS before each reading. The dosage of ATP is done on these samples: 50 μL of this dilution is placed in a luma basin and 50 μl of luminol are added. After 10 seconds, the luminescence read is triggered. The values are standardized with respect to the quantity of proteins for each sample. The measures are done using an apparatus: the Biocounter M2010A LUMAC®/3M.

Assay [2] relates to dermal fibroblasts. The assay is described as follows: Protection against oxidative damage: carbonylation of proteins (EIA/ELISA with DNP). Conditions: for decrease in carbonylation: peptide 1% solution at 50 ppm, 72 hours before, during, 24 hours after stress. An excerpt:
The goal of this study is to determine the protector effect of the peptide SEQ ID no 1 with respect to dermal fibroblasts subjected to oxidative stress caused by UV rays or hydrogen peroxide (H2O2). To evaluate the oxidative damage suffered by the cells, measurements of the carbonylation of the proteins was done.
The carbonylation of proteins is the result of the oxidative splitting of proteins or oxidation of the arginine residues, lysine, proline or threonine. The dosage of the carbonylation of proteins is done using an EIA (Enzyme Immuno Assay) technique.
Fibroblasts in culture were placed in the presence of the peptide SEQ ID no 1 in a 1% solution, at 50 ppm, 72 hours before, during, and also 24 hours after the oxidative stress (UVB irradiation of 50 mJ/cm^2 or treatment par 2 mM of H2O2). untreated controls not subjected to oxidative stress are done.
The degree of carbonylation consists in the use of DNP (dinitrophenyl) which has the property to se fixer specifically on these carbonyl groups of the proteins. The fixed DNP is then assayed using an ELISA method, thanks to an anti-DNP antibody linked to peroxydase. A range of BSA (bovine albumin serum) oxidized (with a known concentration of carbonyl groups) is used for calibration.

The test system of assay [3] is Biopsies of human skin. The assay is described as follows: Protection against stress induced by glycation, ex vivo skin culture, H&E histology. To be noted: methyl glyoxal at 5 or 10 mM; peptide 1% of a 50 ppm mother solution, 24 hours before and 24 hours after glycation agent. The procedure:
The goal of this study is to determine the protective effective of the peptide SEQ ID no 1, with respect to ex vivo epidermal culture subjected to stress by a glycation agent.
Biopsies of human skin are maintained in ex vivo culture, treated with a 1% solution, a mother solution of 50 ppm of peptide SEQ ID no 1, 24 hours before, and also 24 hours after the introduction of a glycation agent (methyl glyoxal at 5 or 10 mM). Histology hematoxyline-eosine (H&E) staining makes it possible to evaluate the quality of skin structures.

For AVLAGD [peptide SEQ ID No 2], the “increase in the quantity of intracellular ATP” value in assay [1] (after 1 hour of culture) is recorded as 17%; in assay [1] (after 3 hours of culture), 67%.

For “Ala-Val-Leu-Ala-Gly-Asp-NH2 (AVLAGD-NH2) [peptide SEQ ID no 1]”, the decrease in carbonylation in assay [2] (UVB irradiation of 50 mJ/cm^2, compared to irradiated cells not treated) came to 20%; in assay [2] (oxidative stress by 2 mM of H2O2, compared to stressed cells not treated), 20%. The “reduction in the carbonylation of proteins” value in assay [2] (cells treated with peptide (1% solution, at 50 ppm), compared to the untreated cells) worked out at 30%. Besides, the “evaluation of the skin structures (H&E staining)” value in assay [3] is reported as “net resistance to cellular stress induced by glycation”.
